Experimental data published in patent US12516039B2, “N-linked isoquinoline amides as LRRK2 inhibitors, pharmaceutical compositions, and uses thereof” (Merck Sharp & Dohme LLC, priority 2020, dated 2026).

Target: T1, GST-tagged truncated human mutant G2019S LRRK2 (Homo sapiens, UniProt Q5S007, G2019S)
T1 construct: GST-tagged truncated human mutant G2019S LRRK2; purchased Life Technologies Corporation (Carlsbad, CA)
Experiment: LRRK2 G2019S Km ATP LanthaScreen assay
Type: biochemical
Details: 134 μM ATP (Km ATP), LRRKtide substrate, mean of several tests, read-out: LRRK2 pIC50 (converted)
Method: Unless otherwise noted, all reactions are magnetically stirred. Unless otherwise noted, when diethyl ether is used in the experiments described below, it is Fisher ACS certified material and is stabilized with BHT. Unless otherwise noted, “concentrated” and/or “solvent removed under reduced pressure” means evaporating the solvent from a solution or mixture using a rotary evaporator or vacuum pump. Unless otherwise noted, flash chromatography is carried out on a Teledyne Isco (Lincoln, NE), Analogix (Burlington, WI), or Biotage (Stockholm, SWE) automated chromatography system using a commercially available cartridge as the column. Columns may be purchased from Teledyne Isco, Analogix, Biotage, Varian (Palo Alto, CA), or Supelco (Bellefonte, PA) and are usually filled with silica gel as the stationary phase. Reverse phase prep-HPLC conditions, where used, can be found at the end of each experimental section. Aqueous solutions were concentrated on a Genevac (Ipswich, ENG) or by freeze-drying/lyophilization. Unless otherwise noted, all LRRK2 pIC50 data presented in tables refers to the LRRK2 G2019S Km ATP LanthaScreen™ assay (Life Technologies Corp., Carlsbad, CA) that is described in the Biological Assay section.
Biological Assay: LRRK2 Km ATP LanthaScreen™ Assay
The LRRK2 kinase activity reported herein as IC50 values was determined with LanthaScreen™ technology from Life Technologies Corporation (Carlsbad, CA) using GST-tagged truncated human mutant G2019S LRRK2 in the presence of the fluorescein-labeled peptide substrate LRRKtide, also from Life Technologies. The data presented for the Km ATP LanthaScreen™ Assay represents mean IC50 values based on several test results and may have reasonable deviations depending on the specific conditions and reagents used. Assays were performed in the presence of 134 μM ATP (Km ATP). Upon completion, the assay was stopped and phosphorylated substrate detected with a terbium (Tb)-labeled anti-pERM antibody (cat. no. PV4898). The compound dose response was prepared by diluting a 10 mM stock of compound to a maximum concentration of 9.99 μM in 100% dimethylsulfoxide followed by custom fold serial dilution in dimethylsulfoxide nine times. Twenty nanoliters of each dilution was spotted via a Labcyte Echo onto a 384-well black-sided plate (Corning 3575) followed by 15 μl of a 1.25 nM enzyme solution in 1× assay buffer (50 mM Tris pH 8.5, 10 mM MgCl2, 0.01% Brij-35, 1 mM EGTA, 2 mM dithiothreitol, 0.05 mM sodium orthovanadate). Following a 15-minute incubation at room temperature, the kinase reaction was started with the addition of 5 μl of 400 nM fluorescein-labeled LRRKtide peptide substrate and 134 μM ATP solution in 1× assay buffer. The reaction was allowed to progress at ambient temperature for 90 minutes. The reaction was then stopped by the addition of 20 μl of TR-FRET Dilution Buffer (Life Technologies, Carlsbad, CA) containing 2 nM Tb-labeled anti-phospho LRRKtide antibody and 10 mM EDTA (Life Technologies, Carlsbad, CA). After an incubation of 1 hour at room temperature, the plate was read on an EnVision multimode plate reader (Perkin Elmer, Waltham, MA) with an excitation wavelength of 337 nm (Laser) and a reading emission at both 520 and 495 nm. Compound IC50s were interpolated from nonlinear regression best fits of the log of the final compound concentration, plotted as a function of the 520/495-nm emission ratio using Activity base. Abase uses a 4 parameter (4P) logistic fit based on the Levenberg-Marquardt algorithm.

T1 sequence (Q5S007 970-2527 G2019S limits assumed): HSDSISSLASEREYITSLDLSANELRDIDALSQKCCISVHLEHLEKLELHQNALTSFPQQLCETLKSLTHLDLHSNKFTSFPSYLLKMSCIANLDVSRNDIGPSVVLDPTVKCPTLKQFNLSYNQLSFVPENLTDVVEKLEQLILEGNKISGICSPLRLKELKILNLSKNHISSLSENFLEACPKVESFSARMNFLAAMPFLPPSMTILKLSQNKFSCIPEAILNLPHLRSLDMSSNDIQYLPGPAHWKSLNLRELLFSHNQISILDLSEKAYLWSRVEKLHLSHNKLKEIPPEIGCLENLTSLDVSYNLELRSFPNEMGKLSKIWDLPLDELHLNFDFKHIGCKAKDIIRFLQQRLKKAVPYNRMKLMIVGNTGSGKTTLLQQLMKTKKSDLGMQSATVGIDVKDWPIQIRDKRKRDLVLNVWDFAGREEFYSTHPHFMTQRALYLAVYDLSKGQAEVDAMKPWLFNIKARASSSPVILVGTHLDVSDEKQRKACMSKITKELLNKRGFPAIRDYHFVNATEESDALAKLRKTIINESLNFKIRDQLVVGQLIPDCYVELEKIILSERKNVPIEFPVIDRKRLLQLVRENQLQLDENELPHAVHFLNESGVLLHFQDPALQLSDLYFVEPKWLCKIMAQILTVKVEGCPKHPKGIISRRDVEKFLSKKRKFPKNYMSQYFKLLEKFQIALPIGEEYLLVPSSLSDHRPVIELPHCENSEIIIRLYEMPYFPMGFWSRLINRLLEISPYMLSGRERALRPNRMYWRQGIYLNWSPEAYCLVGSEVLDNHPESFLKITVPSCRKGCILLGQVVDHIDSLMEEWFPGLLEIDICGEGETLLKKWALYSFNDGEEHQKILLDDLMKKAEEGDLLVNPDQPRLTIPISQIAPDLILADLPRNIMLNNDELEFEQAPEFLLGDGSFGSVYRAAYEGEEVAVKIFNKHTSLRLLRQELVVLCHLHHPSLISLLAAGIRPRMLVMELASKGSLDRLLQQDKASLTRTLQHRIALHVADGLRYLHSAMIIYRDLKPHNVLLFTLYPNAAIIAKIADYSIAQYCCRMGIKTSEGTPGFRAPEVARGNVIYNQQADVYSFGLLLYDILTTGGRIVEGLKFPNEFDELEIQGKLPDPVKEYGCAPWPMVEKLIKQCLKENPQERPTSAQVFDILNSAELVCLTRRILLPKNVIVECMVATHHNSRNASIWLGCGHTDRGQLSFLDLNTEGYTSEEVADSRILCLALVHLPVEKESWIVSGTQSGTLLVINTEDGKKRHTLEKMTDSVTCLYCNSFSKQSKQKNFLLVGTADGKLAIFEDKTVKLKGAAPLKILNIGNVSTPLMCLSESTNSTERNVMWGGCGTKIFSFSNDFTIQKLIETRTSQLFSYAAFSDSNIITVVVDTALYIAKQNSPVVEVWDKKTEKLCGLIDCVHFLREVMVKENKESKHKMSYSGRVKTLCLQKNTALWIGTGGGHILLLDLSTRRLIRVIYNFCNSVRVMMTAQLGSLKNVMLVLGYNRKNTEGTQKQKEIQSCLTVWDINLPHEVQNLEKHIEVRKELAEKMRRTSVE

`CC1(N2CCN(c3cc4cc(NC(=O)C5CC56CCOCC6)ncc4cc3Cl)CC2)COCC1C#N` (racemic) [Ex-18.1] was tested, and the IC50 was 0.912 nM.
`O=C(Nc1cc2cc(N3CCN(C4COCC4O)CC3)c(Cl)cc2cn1)C1CC1` (single isomer, unassigned) [Ex-1.3, (3R,4R or 3S,4S)-N-(7-chloro-6-(4-(4-hydroxytetrahydrofuran-3-yl)piperazin-1-yl)isoquinolin-3-yl)cyclopropanecarboxamide] showed an IC50 of 1.95 nM.
In the case of `O=C(Nc1cc2cc(N3CCN(C4COCC4O)CC3)c(Cl)cc2cn1)C1CC1` (single isomer, unassigned) [Ex-1.4, (3R,4R or 3S,4S)-N-(7-chloro-6-(4-(4-hydroxytetrahydrofuran-3-yl)piperazin-1-yl)isoquinolin-3-yl)cyclopropanecarboxamide], the IC50 is reported as 57.5 nM.
`CC1(N2CCN(c3cc4cc(NC(=O)C5CC5)ncc4cc3F)CC2)COCC1O` (single isomer, unassigned) [Ex-1.5, (3R,4R or 3S,4S)-N-(7-fluoro-6-(4-(4-hydroxy-3-methyltetrahydrofuran-3-yl)piperazin-1-yl)isoquinolin-3-yl)cyclopropanecarboxamide] was tested, and the IC50 was 7.08 nM.
`CC1(N2CCN(c3cc4cc(NC(=O)C5CC5)ncc4cc3F)CC2)COCC1O` (single isomer, unassigned) [Ex-1.6, (3R,4R or 3S,4S)-N-(7-fluoro-6-(4-(4-hydroxy-3-methyltetrahydrofuran-3-yl)piperazin-1-yl)isoquinolin-3-yl)cyclopropanecarboxamide] was tested, and the IC50 was 912 nM.
Work on `CC1(N2CCN(c3cc4cc(NC(=O)C5CC56CCC6)ncc4cc3Cl)CC2)COCC1O` (single isomer, unassigned) [Ex-1.7, (1R or 1S)-N-(7-chloro-6-(4-((3R,4R or 3S,4S)-4-hydroxy-3-methyltetrahydrofuran-3-yl)piperazin-1-yl)isoquinolin-3-yl)spiro[2.3]hexane-1-carboxamide] yielded an IC50 of 6.61 nM.
In the case of `CC1(N2CCN(c3cc4cc(NC(=O)C5CC56CCC6)ncc4cc3Cl)CC2)COCC1O` (single isomer, unassigned) [Ex-1.8, (1R or 1S)-N-(7-chloro-6-(4-((3R,4R or 3S,4S)-4-hydroxy-3-methyltetrahydrofuran-3-yl)piperazin-1-yl)isoquinolin-3-yl)spiro[2.3]hexane-1-carboxamide], the IC50 is reported as 2.34 nM.
`CC1(N2CCN(c3cc4cc(NC(=O)C5C6COCC65)ncc4cc3Cl)CC2)COCC1O` (single isomer, unassigned) [Ex-1.9, (1R or S)-N-(7-chloro-6-(4-((3R,4R or 3S,4S)-4-hydroxy-3-methyltetrahydrofuran-3-yl)piperazin-1-yl)isoquinolin-3-yl)-3-oxabicyclo[3.1.0]hexane-6-carboxamide] gave an IC50 of 0.794 nM.
`CC1(N2CCN(c3cc4cc(NC(=O)C5C6COCC65)ncc4cc3Cl)CC2)COCC1O` (single isomer, unassigned) [Ex-1.10, (1R or S)-N-(7-chloro-6-(4-((3R,4R or 3S,4S)-4-hydroxy-3-methyltetrahydrofuran-3-yl)piperazin-1-yl)isoquinolin-3-yl)-3-oxabicyclo[3.1.0]hexane-6-carboxamide] was tested, and the IC50 was 107 nM.
